Laboratory results taken from ChEMBL document CHEMBL1142513, “Efficient solid-phase synthesis of FK228 analogues as potent antitumoral agents” (J Med Chem, 2008).

How the values were obtained:
[1] = system: T-24; assay: Growth inhibition of human T24 cells at 0.5 uM after 3 days by MTT assay; format: functional; conditions: T-24, 72 h, read-out: GI
[2] = system: T-24; assay: Antitumor activity against human T24 cells after 3 days by MTT assay; format: functional, cell-based; conditions: T-24, 72 h
[3] = Antitumor activity against human 253J cells after 3 days by MTT assay; format: functional, cell-based; conditions: 72 h
[4] = system: LNCaP; assay: Antitumor activity against human LNCAP cells after 3 days by MTT assay; format: functional, cell-based; conditions: 72 h
[5] = system: T-24; assay: Growth inhibition of human T24 cells at 5 uM after 3 days by MTT assay; format: functional; conditions: T-24, 72 h, read-out: GI
[6] = system: PC-3; assay: Antitumor activity against human PC-3 cells after 3 days by MTT assay; format: functional, cell-based; conditions: PC-3, 72 h
[7] = system: TCC-SUP; assay: Antitumor activity against human TCC-SUP cells after 3 days by MTT assay; format: functional, cell-based; conditions: 72 h
[8] = system: DU-145; assay: Antitumor activity against human DU145 cells after 3 days by MTT assay; format: functional, cell-based; conditions: DU-145, 72 h

IC50 [4] [nM] | IC50 [6] [nM] | IC50 [8] [nM] | SMILES | inhibition of growth at 0.5 µM [1] [%] | IC50 [2] [nM] | IC50 [3] [nM] | inhibition of growth at 5 µM [5] [%] | IC50 [7] [nM]
270 | 600 | 180 | CC(C)[C@H]1NC(=O)C[C@@H]2NC(=O)[C@H](Cc3ccccc3)NC(=O)[C@H](Cc3ccccc3)NC(=O)[C@H](CSSCCNC2=O)NC1=O | 70 | 260 | 180 | > 95 | 380
 |  |  | CC(C)[C@H]1NC(=O)C[C@@H]2NC(=O)[C@H](Cc3cccc4ccccc34)NC(=O)[C@H](Cc3cccc4ccccc34)NC(=O)[C@H](CSSCCNC2=O)NC1=O | 70 | 60 |  | > 95 | 
